Here are results for five molecules from patent US20240270821A1, “GIP/GLP1/GCG TRI-RECEPTOR AGONISTS AND USES THEREOF” (priority 2023, published 2024).

Data set [1] addresses T1, hGIPR (Homo sapiens, UniProt P48546).
T1 sequence (P48546 22-466): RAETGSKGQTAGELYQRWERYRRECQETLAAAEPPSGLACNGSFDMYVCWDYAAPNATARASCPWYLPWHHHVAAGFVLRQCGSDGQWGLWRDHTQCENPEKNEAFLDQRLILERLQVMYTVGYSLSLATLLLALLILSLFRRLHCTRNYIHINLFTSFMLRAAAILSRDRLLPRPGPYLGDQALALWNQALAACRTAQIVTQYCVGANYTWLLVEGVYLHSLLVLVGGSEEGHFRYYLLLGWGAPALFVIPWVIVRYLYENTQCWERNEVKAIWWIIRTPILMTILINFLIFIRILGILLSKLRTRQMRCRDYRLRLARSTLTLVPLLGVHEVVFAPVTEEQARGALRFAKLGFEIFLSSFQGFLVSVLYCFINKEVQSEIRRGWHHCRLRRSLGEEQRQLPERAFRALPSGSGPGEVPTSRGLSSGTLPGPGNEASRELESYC
The data set is described as follows: Functional cAMP activity in the presence of 1% HSA. Format: cell-based. To be noted: read-out: cAMP Rel EC50, hGIPR.

Data set [2] addresses T2, hGLP-1R (Homo sapiens, UniProt P43220). The data set is described as follows: Functional cAMP activity in the presence of 1% HSA. The format is cell-based. To be noted: read-out: cAMP Rel EC50, hGLP-1R.
Data set [3] has as its target human GcgR (Homo sapiens, UniProt P47871). The data set is described as follows: Functional cAMP activity in the presence of 1% HSA. To be noted: read-out: cAMP Rel EC50, hGcgR. The format is cell-based.
Data set [4] concerns the target T1, hGIPR. In words: Functional cAMP activation in the presence of 0.1% casein (no HSA). Format: cell-based. To be noted: in the presence of 0.1% casein (no HSA); geometric mean; read-out: Relative cAMP EC50, hGIPR.
Data set [5] concerns the target T2, hGLP-1R. The data set is described as above. The format is cell-based. To be noted: in the presence of 0.1% casein (no HSA); geometric mean; read-out: Relative cAMP EC50, hGLP-1R.
Procedure: After a 30-minute incubation at 37° C., the resulting increase in intracellular cAMP is quantitatively determined using the CisBio CAMP Dynamic 2 HTRF Assay Kit (62AM4PEJ). Briefly, cAMP levels within the cell are detected by adding the cAMP-d2 conjugate in cell lysis buffer followed by the antibody anti-cAMP-Eu^3+-Cryptate, also in cell lysis buffer.
Intracellular cAMP levels are determined by extrapolation using a standard curve. Dose response curves of compounds are plotted as the percentage of stimulation normalized to minimum (buffer only) and maximum (maximum concentration of each control ligand) values and analyzed using a four parameter non-linear regression fit with a variable slope (Genedata Screener 13). EC50 is the concentration of compound causing half-maximal simulation in a dose response curve. Each relative EC50 value for the Geometric mean calculation is determined from a curve fitting.
The target in data set [6] is hGcgR (Homo sapiens, UniProt P47871). Described as above. To be noted: in the presence of 0.1% casein (no HSA); geometric mean; read-out: Relative cAMP EC50, hGcgR. Format: cell-based.
hGcgR, sequence (P47871 26-477): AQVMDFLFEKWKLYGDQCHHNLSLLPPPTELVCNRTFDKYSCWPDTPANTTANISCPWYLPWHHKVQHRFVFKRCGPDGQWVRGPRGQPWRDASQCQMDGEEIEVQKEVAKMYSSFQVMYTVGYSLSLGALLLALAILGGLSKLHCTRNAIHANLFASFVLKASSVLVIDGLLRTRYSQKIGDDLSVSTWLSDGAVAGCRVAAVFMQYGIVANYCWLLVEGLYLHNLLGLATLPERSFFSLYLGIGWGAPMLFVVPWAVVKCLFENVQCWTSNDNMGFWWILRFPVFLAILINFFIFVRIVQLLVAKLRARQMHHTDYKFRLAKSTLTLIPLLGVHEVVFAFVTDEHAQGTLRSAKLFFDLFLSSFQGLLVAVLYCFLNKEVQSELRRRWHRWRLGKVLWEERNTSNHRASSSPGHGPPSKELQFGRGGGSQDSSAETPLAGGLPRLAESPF
In data set [7] the target is human GLP1-R (Homo sapiens, UniProt P43220). In words: GLP1-R internalization assay in HEK293 cells. Format: cell-based. To be noted: for EC50: HEK293 cells expressing SNAP-GLP-1R, read-out: GLP1R Internalization EC50; for Internalization % TOP: normalized to maximum concentration of GLP-1 (100%).
human GLP1-R, sequence (P43220 24-463): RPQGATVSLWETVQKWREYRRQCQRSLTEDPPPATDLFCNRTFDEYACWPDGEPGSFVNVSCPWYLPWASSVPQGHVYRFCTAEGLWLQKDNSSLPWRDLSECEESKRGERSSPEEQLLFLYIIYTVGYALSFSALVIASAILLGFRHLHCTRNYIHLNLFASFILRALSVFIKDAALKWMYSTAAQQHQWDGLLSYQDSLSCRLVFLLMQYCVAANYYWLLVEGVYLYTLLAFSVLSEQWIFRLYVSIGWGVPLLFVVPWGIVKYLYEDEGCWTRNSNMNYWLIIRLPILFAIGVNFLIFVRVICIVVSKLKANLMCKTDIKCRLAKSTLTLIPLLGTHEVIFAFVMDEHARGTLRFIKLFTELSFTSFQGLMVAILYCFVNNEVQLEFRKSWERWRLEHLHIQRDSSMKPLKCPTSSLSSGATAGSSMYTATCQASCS
The subject of data set [8] is Intestinal organoid from Göttingen minipig jejunum tissue, 2D monolayer. The data set is described as follows: Cell based in vitro permeability (Papp) assay. The format is in vitro ADME. As to the method: Intestinal organoid from Göttingen minipig jejunum tissue and its 2D monolayer are generated using the protocol previously described ([…]-Thiele, […].; Wells, J. M., Optimized procedures for generating an enhanced, near physiological 2D culture system from porcine intestinal organoids. […] After 7 days of culture, organoids are dissociated into single cells by TrypLE (GIbco), and the single cell suspension is added in 24-well transparent transwell inserts (0.3 cm^2, Falcon, BD). […] Samples from the basal compartment are collected at 20 min in the presence of C10. Peptide concentrations in the apical and basal compartments are measured by LC/MS, and the apparent permeability coefficient (Papp) is calculated as previously described (Twarog, C.; Liu, K.; O'Brien, P. J.; Dawson, […] head-to-head Caco-2 assay comparison of the mechanisms of action of the intestinal permeation enhancers: SNAC and sodium caprate (C10).
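For Relative cAMP EC50, hGIPR in this document: intracellular cAMP rise after 30 min at 37 °C read by HTRF against a standard curve, scaled between buffer alone (0%) and top control ligand concentration (100%), four-parameter fit.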
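For Relative cAMP EC50, hGLP-1R in this document: intracellular cAMP rise after 30 min at 37 °C read by HTRF, normalized between buffer only (0%) and maximal control ligand (100%), four-parameter variable-slope fit.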
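For Relative cAMP EC50, hGcgR in this document: intracellular cAMP rise after 30 min at 37 °C, read by HTRF against a cAMP standard curve, scaled from buffer only (0%) to maximal control ligand response (100%).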

human GcgR, sequence (P47871 26-477): as the sequence (P47871 26-477) above
T2 sequence (P43220 24-463): as the sequence (P43220 24-463) above

Consider `CC[C@H](C)[C@H](NC(=O)[C@H](Cc1ccccc1)NC(=O)[C@H](C)NC(=O)C(C)(C)NC(=O)[C@H](CCC(N)=O)NC(=O)[C@H](C)NC(=O)[C@H](CCCCNC(=O)COCCOCCNC(=O)CC[C@H](NC(=O)CCCCCCCCCCCCCCCCC(=O)O)C(=O)O)NC(=O)[C@H](CCCCN)NC(=O)[C@H](CC(=O)O)NC(=O)[C@H](CC(C)C)NC(=O)[C@](C)(CC(C)C)NC(=O)[C@H](CCCN)NC(=O)[C@H](CO)NC(=O)[C@H](Cc1ccccc1)NC(=O)[C@H](CC(=O)O)NC(=O)[C@H](CO)NC(=O)[C@@H](NC(=O)[C@H](Cc1ccccc1)NC(=O)[C@@H](NC(=O)CNC(=O)[C@H](CCC(N)=O)NC(=O)C(C)(C)NC(=O)[C@@H](N)Cc1ccc(O)cc1)[C@@H](C)O)[C@@H](C)O)C(=O)N[C@@H](CCC(=O)O)C(=O)N[C@@H](Cc1c[nH]c2ccccc12)C(=O)N[C@@H](CC(C)C)C(=O)N[C@@H](CC(C)C)C(=O)N[C@@H](CCC(=O)O)C(=O)NCC(=O)NCC(=O)N1CCC[C@H]1C(=O)N[C@@H](CO)C(=O)N[C@@H](CO)C(=O)NCC(=O)N[C@@H](C)C(=O)N1CCC[C@H]1C(=O)N1CCC[C@H]1C(=O)N1CCC[C@H]1C(=O)N[C@@H](CO)C(=O)NCC(=O)N[C@@H](CCC(=O)O)C(N)=O` [Example 119], for which the 50% effective concentration (EC50) (as a rule, the concentration that produces a half-maximal response) was 19.7 nM in data set [1]; 387 nM in data set [2]; 839 nM in data set [3]; 0.179 nM in data set [4]; 3.67 nM in data set [5]; 5.6 nM in data set [6]. Further, the EC50 in data set [7] was 73.5 nM. For the same molecule, the “Internalization % TOP” value in data set [7] is 43.4%. Besides, the “Relative Papp (Compared to internal standard)” value (“Relative Papp” below) in data set [8] is 0.15.
Consider `CC[C@H](C)[C@H](NC(=O)[C@H](Cc1ccccc1)NC(=O)[C@H](C)NC(=O)C(C)(C)NC(=O)[C@H](CCC(N)=O)NC(=O)[C@H](C)NC(=O)[C@H](CCCCNC(=O)CC[C@H](NC(=O)CC[C@H](NC(=O)CCCCCCCCCCCCCCCCC(=O)O)C(=O)O)C(=O)O)NC(=O)[C@H](CCCCN)NC(=O)[C@H](CC(=O)O)NC(=O)[C@H](CC(C)C)NC(=O)[C@](C)(CC(C)C)NC(=O)[C@H](CCCN)NC(=O)[C@H](CO)NC(=O)[C@H](Cc1ccccc1)NC(=O)[C@H](CC(=O)O)NC(=O)[C@H](CO)NC(=O)[C@@H](NC(=O)[C@H](Cc1ccccc1)NC(=O)[C@@H](NC(=O)CNC(=O)[C@H](CCC(N)=O)NC(=O)C(C)(C)NC(=O)[C@@H](N)Cc1ccc(O)cc1)[C@@H](C)O)[C@@H](C)O)C(=O)N[C@@H](CCC(=O)O)C(=O)N[C@@H](Cc1ccc(O)cc1)C(=O)N[C@@H](CC(C)C)C(=O)N[C@@H](CC(C)C)C(=O)N[C@@H](CCC(=O)O)C(=O)N[C@H](C)C(=O)NCC(=O)N1CCC[C@H]1C(=O)N[C@@H](CO)C(=O)N[C@@H](CO)C(=O)NCC(=O)N[C@@H](C)C(=O)N1CCC[C@H]1C(=O)N1CCC[C@H]1C(=O)N1CCC[C@H]1C(=O)N[C@@H](CO)C(=O)NCC(=O)N[C@H](C(N)=O)[C@@H](C)O` [Example 204], for which the 50% effective concentration (EC50) in data set [1] was 16.7 nM; in data set [2] it was 306 nM; in data set [3], 572 nM; in data set [4], 0.181 nM; in data set [5], 2.34 nM; in data set [6] it was 6.92 nM. In addition, the EC50 in data set [7] was found to be 66.4 nM. Moreover, the “Internalization % TOP” value in data set [7] amounted to 45.5%. In data set [8], the “Relative Papp” value amounted to 0.16.
Take `CC[C@H](C)[C@H](NC(=O)[C@H](Cc1ccccc1)NC(=O)[C@H](C)NC(=O)C(C)(C)NC(=O)[C@H](CCC(N)=O)NC(=O)[C@H](C)NC(=O)[C@H](CCCCNC(=O)COCCOCCNC(=O)CC[C@H](NC(=O)CCCCCCCCCCCCCCCCC(=O)O)C(=O)O)NC(=O)[C@H](CCCCN)NC(=O)[C@H](CC(=O)O)NC(=O)[C@H](CC(C)C)NC(=O)[C@](C)(CC(C)C)NC(=O)[C@H](CCCN)NC(=O)[C@H](CO)NC(=O)[C@H](Cc1ccccc1)NC(=O)[C@H](CC(=O)O)NC(=O)[C@H](CO)NC(=O)[C@@H](NC(=O)[C@H](Cc1ccccc1)NC(=O)[C@@H](NC(=O)CNC(=O)[C@H](CCC(N)=O)NC(=O)C(C)(C)NC(=O)[C@@H](N)Cc1ccc(O)cc1)[C@@H](C)O)[C@@H](C)O)C(=O)N[C@@H](CCC(=O)O)C(=O)N[C@@H](Cc1ccc(O)cc1)C(=O)N[C@@H](CC(C)C)C(=O)N[C@@H](CC(C)C)C(=O)N[C@@H](CCC(=O)O)C(=O)N[C@H](C)C(=O)NCC(=O)N[C@@H](CCCCNC(C)=O)C(=O)N[C@@H](CO)C(=O)N[C@@H](CO)C(=O)NCC(=O)N[C@@H](C)C(=O)N1CCC[C@H]1C(=O)N1CCC[C@H]1C(=O)N1CCC[C@H]1C(=O)N[C@@H](CO)C(=O)NCC(=O)N[C@@H](CCC(=O)O)C(N)=O` [Example 208]: the half-maximal effective concentration (EC50) in data set [2] is 336 nM; in data set [3], 578 nM; in data set [4], 0.159 nM; in data set [5] it was 3.72 nM; in data set [6] it was 2.69 nM; in data set [7], 55.7 nM. In data set [7], the “Internalization % TOP” value amounted to 49.6%. In addition, in data set [8], the “Relative Papp” value turned out to be 0.29.
`CC[C@H](C)[C@H](NC(=O)[C@H](Cc1ccccc1)NC(=O)[C@H](C)NC(=O)C(C)(C)NC(=O)[C@H](CCC(N)=O)NC(=O)[C@H](C)NC(=O)[C@H](CCCCNC(=O)COCCOCCNC(=O)CC[C@H](NC(=O)CCCCCCCCCCCCCCCCC(=O)O)C(=O)O)NC(=O)[C@H](CCCCN)NC(=O)[C@H](CC(=O)O)NC(=O)[C@H](CC(C)C)NC(=O)[C@](C)(CC(C)C)NC(=O)[C@H](CCCN)NC(=O)[C@H](CO)NC(=O)[C@H](Cc1ccccc1)NC(=O)[C@H](CC(=O)O)NC(=O)[C@H](CO)NC(=O)[C@@H](NC(=O)[C@H](Cc1ccccc1)NC(=O)[C@@H](NC(=O)CNC(=O)[C@H](CCC(N)=O)NC(=O)C(C)(C)NC(=O)[C@@H](N)Cc1ccc(O)cc1)[C@@H](C)O)[C@@H](C)O)C(=O)N[C@@H](CCC(=O)O)C(=O)N[C@@H](Cc1ccc(O)cc1)C(=O)N[C@@H](CC(C)C)C(=O)N[C@@H](CC(C)C)C(=O)N[C@@H](CCC(=O)O)C(=O)N[C@H](C)C(=O)NCC(=O)N1CCC[C@H]1C(=O)N[C@@H](CO)C(=O)N[C@@H](CO)C(=O)NCC(=O)N[C@@H](C)C(=O)N1CCC[C@H]1C(=O)N1CCC[C@H]1C(=O)N1CCC[C@H]1C(=O)N[C@@H](CO)C(=O)NCC(=O)N[C@H](C(N)=O)[C@@H](C)O` [Example 210]: the half-maximal effective concentration (EC50) in data set [1] was 23.5 nM; in data set [2] it was 264 nM; in data set [3] it was 501 nM; in data set [4] it was 0.153 nM; in data set [5], 1.44 nM; in data set [6] it was 2.81 nM. Besides, the EC50 in data set [7] was 80.2 nM. Besides, the “Internalization % TOP” value in data set [7] is listed as 49.2%. The “Relative Papp” value in data set [8] is listed as 0.06.
In the case of `CC[C@H](C)[C@H](NC(=O)[C@H](Cc1ccccc1)NC(=O)[C@H](C)NC(=O)C(C)(C)NC(=O)[C@H](CCC(N)=O)NC(=O)[C@H](C)NC(=O)[C@H](CCCCNC(=O)COCCOCCNC(=O)CC[C@H](NC(=O)CCCCCCCCCCCCCCCCC(=O)O)C(=O)O)NC(=O)[C@H](CCCCN)NC(=O)[C@H](CC(=O)O)NC(=O)[C@H](CC(C)C)NC(=O)[C@](C)(CC(C)C)NC(=O)[C@H](CCCN)NC(=O)[C@H](CO)NC(=O)[C@H](Cc1ccccc1)NC(=O)[C@H](CC(=O)O)NC(=O)[C@H](CO)NC(=O)[C@@H](NC(=O)[C@H](Cc1ccccc1)NC(=O)[C@@H](NC(=O)CNC(=O)[C@H](CCC(N)=O)NC(=O)C(C)(C)NC(=O)[C@@H](N)Cc1ccc(O)cc1)[C@@H](C)O)[C@@H](C)O)C(=O)N[C@@H](CCC(=O)O)C(=O)N[C@@H](Cc1c[nH]c2ccccc12)C(=O)N[C@@H](CC(C)C)C(=O)N[C@@H](CC(C)C)C(=O)N[C@@H](CCC(=O)O)C(=O)NCC(=O)NCC(=O)N1CCC[C@H]1C(=O)N[C@@H](CO)C(=O)N[C@@H](CO)C(=O)NCC(=O)N[C@@H](C)C(=O)N1CCC[C@H]1C(=O)N1CCC[C@H]1C(=O)N1CCC[C@H]1C(=O)N[C@@H](Cc1c[nH]cn1)C(=O)NCC(=O)N[C@@H](CO)C(N)=O` [Example 249], the concentration giving a half-maximal response (EC50) in data set [1] stood at 22.5 nM; in data set [2] it was 256 nM; in data set [3], 604 nM; in data set [4] it was 0.173 nM; in data set [6] it was 5.55 nM; in data set [7] it was 86.2 nM. In addition, the “Internalization % TOP” value in data set [7] is listed as 34.8%. Besides, the “Relative Papp” value in data set [8] is recorded as 0.04.
